{"source": "paper PMC9167803", "about": "(Acta Pharmaceutica Sinica. B, 2022)", "molecular_target": "SARS-CoV-2 RBD (Severe acute respiratory syndrome coronavirus 2, UniProt P0DTC2)", "experiment": "biochemical", "format": "binding"}
{"smiles": "O=c1c(O)c(-c2ccc(O)c(O)c2)oc2cc(O)cc(O)c12", "note": "[compound 4, quercetin]", "values": [{"measurement": "Kd", "value": 75.6, "unit": "µM"}]}
